Assay results from US5500217A, “Personal care formulations” (priority 1991, dated 1996).
Where a name gives a salt, the structure may show the parent alone.

Columns and labels:
Pseudomonas aeruginosa [1] = experiment: Challenge test in shampoo, number of surviving (viable) bacteria; format: cell-based, Pseudomonas aeruginosa (ATCC 19429)
Procedure: (§1) Further aspects of the present invention are described in the following illustrative examples. Unless otherwise stated all refer to parts by weight. Also, personal care formulations in accordance with the present invention were subjected to evaluation of the antimicrobial properties of the composition. The anti-microbial evaluation was effected, under aseptic conditions throughout, in the following manner.
(§2) In the anti-microbial evaluation, the formulations were tested for anti-microbial activity against bacteria and/or fungi. The bacteria used were either Pseudomonas aeruginosa or Staphylococcusaureus. The fungus used was Candida albicans.
Aliquots (4 parts) of the above shampoo were then prepared with concentrations of the biocides indicated in Table 3 at 500 and 125 ppm of active ingredient.
The above samples were then challenged with a 0.2 parts by volume inoculum of a 24 hour culture of Pseudomonas aeruginosa (ATCC 19429) containing approximately 1×10^8 colony forming units (cfu's) per milliliter. The samples were then incubated in the dark at 25° C., 1 milliliter samples taken after 24 hours, 48 hours and 7 days and the number of surviving bacteria determined.
The procedure of Examples 4-14 were repeated using the 1:1 silver complex of N-methyl-N-hydroxythiobenzamide at four different concentrations.

Candida albicans = experiment: Anti-microbial challenge test in oil in water emulsion (base cream), Candida albicans; format: cell-based, Candida albicans (ATCC 10231); conditions: viable count < 10^2 cells cm^-3; for MLC, CA, 7d: 7 days
Procedure: as §1, §2
(§3) To aliquots (20 parts) of the emulsion were added various anti-microbial agents at concentrations of 500, 125, 31.25 and 7.8 ppm of active ingredients.
(§4) One sample of each mixture was inoculated with 0.2 parts by volume of a 24 hour culture of Staphylococcus aureus (ATCC 6538) containing 10^8 cells cm^-3. Duplicate samples of each mixture were inoculated with 0.2 parts by volume of a 48 hour culture of Candida albicans (ATCC 10231) containing 10^8 cells cm^-3.
(§5) The samples were then incubated and samples removed after 24 hours, 48 hours and 7 days as described in Examples 1 and 2 with the exception that the samples were not subjected to a further challenge after seven days.

Staphylococcus aureus = experiment: Anti-microbial challenge test in oil in water emulsion (base cream), Staphylococcus aureus; format: cell-based, Staphylococcus aureus (ATCC 6538); conditions: viable count < 10^2 cells cm^-3; for MLC, SA, 7d: 7 days
Procedure: as §1, §2, §3, §4, §5

Pseudomonas aeruginosa [2] = experiment: Anti-microbial challenge test in protein-containing shampoo (MLC, two challenges); format: cell-based, Pseudomonas aeruginosa (ATCC 19429); conditions: viable count < 10^2 cells cm^-3; for MLC, Challenge 1, 48h / MLC, Challenge 1, 7d: first challenge; for MLC, Challenge 1, 7d / MLC, Challenge 2, 7d: 7 days
Procedure: as §1, §2
To aliquots (20 parts) of the shampoo formulation prepared as described were added various anti-microbial agents at concentrations of 125, 62.5, 31.25, 7.8 and 1.56 ppm of active ingredient, not all of the anti-microbial agents being used at all of these levels. The anti-microbial agents, and the levels used are as set out in Table One.
One sample of a mixture of the shampoo formulation and the anti-microbial agent was stored for one month (4 weeks) at 40° C. and a duplicate sample of the mixture was stored for one month at ambient temperature (about 20° C.).
The variants thus obtained were then challenged with a 0.2 parts by volume inoculum of a 24 hour culture of Pseudomonas aeruginosa (ATCC 19429) containing approximately 1×10^8 colony forming units (cfu's) per cm^3. The variants were than incubated in the dark at 25° C., and samples (one cm^3) were taken after 24 hours, 48 hours and 7 days. The number of surviving bacteria was determined by the decimal dilution method and the viable cells enumerated by incubation of the survivor detection plates at 30° C. for three days.
The results are shown in Table One in which the concentration of anti-microbial agent is the minimum required to reduce the count of viable cells to less than 10^2 cells cm^-3.
After removing the seven day sample, the samples of the shampoo formulation were challenged with a further 0.2 parts of a similar Pseudomonas aeruginosa culture and incubation at 25° C. was continued. Further one cm^3 samples were removed after 24 hours, 48 hours and 7 days and the number of surviving bacteria was determined in the same manner.

[3] = (S): shampoo stored one month at 40° C.
[4] = (S): shampoo stored one month at 40° C., second challenge
[5] = shampoo stored one month at ambient temperature
[6] = shampoo stored one month at ambient temperature, second challenge

## Cc1csc(=S)n1[O-].Cc1csc(=S)n1[O-].Cc1csc(=S)n1[O-].[In+3] [Example 11]
Pseudomonas aeruginosa [1]; Table 3, 125 ppm
  Viable bacteria after 24 hr: 9.1 E2
  Viable bacteria after 48 hr: < 10
  Viable bacteria after 7 days: < 10
Pseudomonas aeruginosa [1]; Table 3, 500 ppm
  Viable bacteria after 24 hr: < 10
  Viable bacteria after 48 hr: < 10
  Viable bacteria after 7 days: < 10

## Cc1csc(=S)n1[O-].Cc1csc(=S)n1[O-].[Mn+2] [Example 7]
Pseudomonas aeruginosa [1]; Table 3, 125 ppm
  Viable bacteria after 24 hr: 2.4 E4
  Viable bacteria after 48 hr: > 3.0 E4
  Viable bacteria after 7 days: > 3.0 E4
Pseudomonas aeruginosa [1]; Table 3, 500 ppm
  Viable bacteria after 24 hr: 3.5 E4
  Viable bacteria after 48 hr: > 3.0 E4
  Viable bacteria after 7 days: > 3.0 E4

## Cc1csc(=S)n1O.Cc1csc(=S)n1O.[Zn] [ZTA, 2:1 complex of 3hydroxy-4-methyl-thiazol-2(3H) thione and zinc]
Candida albicans
  MLC, CA, 24h: 31.25 ppm w/v
  MLC, CA, 48h: 31.25 ppm w/v
  MLC, CA, 7d: 31.25 ppm w/v
Staphylococcus aureus
  MLC, SA, 24h: 500 ppm w/v
  MLC, SA, 48h: 31.25 ppm w/v
  MLC, SA, 7d: 7.8 ppm w/v
Pseudomonas aeruginosa [1]; Table 3, 125 ppm
  Viable bacteria after 24 hr: 6.2 E3
  Viable bacteria after 48 hr: < 10
  Viable bacteria after 7 days: < 10
Pseudomonas aeruginosa [1]; Table 3, 500 ppm
  Viable bacteria after 24 hr: 7.6 E3
  Viable bacteria after 48 hr: < 10
  Viable bacteria after 7 days: < 10
Pseudomonas aeruginosa [2]; [3]
  MLC, Challenge 1, 48h: 62.5 ppm w/v
  MLC, Challenge 1, 7d: 62.5 ppm w/v
Pseudomonas aeruginosa [2]; [4]
  MLC, Challenge 2, 48h: 62.5 ppm w/v
  MLC, Challenge 2, 7d: 62.5 ppm w/v
Pseudomonas aeruginosa [2]; [5]
  MLC, Challenge 1, 48h: 7.8 ppm w/v
  MLC, Challenge 1, 7d: 7.8 ppm w/v
Pseudomonas aeruginosa [2]; shampoo stored one month at ambient temperature, second challenge, 24 h
  MLC, Challenge 2, 24h: 31.25 ppm w/v
Pseudomonas aeruginosa [2]; [6]
  MLC, Challenge 2, 48h: 31.25 ppm w/v
  MLC, Challenge 2, 7d: 31.25 ppm w/v

## Cc1csc(=S)n1O [Example 4, 3hydroxy-4-methylthiazol-2(3H)-thione]
Pseudomonas aeruginosa [1]; Table 3, 125 ppm
  Viable bacteria after 24 hr: 1.7 E4
  Viable bacteria after 48 hr: > 3.0 E4
  Viable bacteria after 7 days: > 3.0 E4
Pseudomonas aeruginosa [1]; Table 3, 500 ppm
  Viable bacteria after 24 hr: 1.2 E4
  Viable bacteria after 48 hr: > 3.0 E4
  Viable bacteria after 7 days: > 3.0 E4

## [O-]n1ccccc1=S.[O-]n1ccccc1=S.[Zn+2] [ZP, 1:2 complex of zinc with 1hydroxy-2-pyridinethione]
Candida albicans
  MLC, CA, 24h: 500 ppm w/v
  MLC, CA, 48h: 500 ppm w/v
  MLC, CA, 7d: 31.25 ppm w/v
Staphylococcus aureus
  MLC, SA, 24h: > 500 ppm w/v
  MLC, SA, 48h: > 500 ppm w/v
  MLC, SA, 7d: 500 ppm w/v

## Cc1csc(=S)n1[O-].Cc1csc(=S)n1[O-].[Zn+2] [Example 14]
Pseudomonas aeruginosa [1]; Table 3, 125 ppm
  Viable bacteria after 24 hr: 3.3 E3
  Viable bacteria after 48 hr: < 10
  Viable bacteria after 7 days: < 10
Pseudomonas aeruginosa [1]; Table 3, 500 ppm
  Viable bacteria after 24 hr: 4.4 E3
  Viable bacteria after 48 hr: < 10
  Viable bacteria after 7 days: < 10

## Cc1csc(=S)n1[O-].Cc1csc(=S)n1[O-].Cc1csc(=S)n1[O-].[Co+3] [Example 8]
Pseudomonas aeruginosa [1]; Table 3, 125 ppm
  Viable bacteria after 24 hr: 2.1 E3
  Viable bacteria after 48 hr: < 10
  Viable bacteria after 7 days: < 10
Pseudomonas aeruginosa [1]; Table 3, 500 ppm
  Viable bacteria after 24 hr: 1.2 E3
  Viable bacteria after 48 hr: < 10
  Viable bacteria after 7 days: < 10

## Cc1csc(=S)n1[O-].Cc1csc(=S)n1[O-].Cc1csc(=S)n1[O-].[Y+3] [Example 6]
Pseudomonas aeruginosa [1]; Table 3, 125 ppm
  Viable bacteria after 24 hr: 4.5 E4
  Viable bacteria after 48 hr: > 1.0 E4
  Viable bacteria after 7 days: < 3.0 E4
Pseudomonas aeruginosa [1]; Table 3, 500 ppm
  Viable bacteria after 24 hr: 1.4 E4
  Viable bacteria after 48 hr: > 3.0 E4
  Viable bacteria after 7 days: < 3.0 E4

## Cc1csc(=S)n1[O-].Cc1csc(=S)n1[O-].Cc1csc(=S)n1[O-].[Sc+3] [Example 9]
Pseudomonas aeruginosa [1]; Table 3, 125 ppm
  Viable bacteria after 24 hr: 2.6 E3
  Viable bacteria after 48 hr: 8.0
  Viable bacteria after 7 days: < 10
Pseudomonas aeruginosa [1]; Table 3, 500 ppm
  Viable bacteria after 24 hr: 2.0 E3
  Viable bacteria after 48 hr: 1.7 E2
  Viable bacteria after 7 days: < 10

## Cc1csc(=S)n1[O-].Cc1csc(=S)n1[O-].[Co+2] [Example 13]
Pseudomonas aeruginosa [1]; Table 3, 125 ppm
  Viable bacteria after 24 hr: 2.1 E3
  Viable bacteria after 48 hr: < 10
  Viable bacteria after 7 days: < 10
Pseudomonas aeruginosa [1]; Table 3, 500 ppm
  Viable bacteria after 24 hr: 5.2 E2
  Viable bacteria after 48 hr: < 10
  Viable bacteria after 7 days: < 10

## On1ccccc1=S [SP, sodium salt of 1hydroxy-2-pyridinethione]
Candida albicans
  MLC, CA, 24h: 500 ppm w/v
  MLC, CA, 48h: 500 ppm w/v
  MLC, CA, 7d: 31.25 ppm w/v
Staphylococcus aureus
  MLC, SA, 24h: > 500 ppm w/v
  MLC, SA, 48h: 500 ppm w/v
  MLC, SA, 7d: 125 ppm w/v

## CN(O)C(=S)c1ccccc1.[Ag] [Example 15, 1:1 silver complex of N-methyl-N-hydroxythiobenzamide]
Pseudomonas aeruginosa [1]; Table 4, 7.13 ppm
  Viable bacteria after 24 hrs: < 10
  Viable bacteria after 48 hrs: < 10
  Viable bacteria after 7 days: < 10
Pseudomonas aeruginosa [1]; Table 4, 31.25 ppm
  Viable bacteria after 24 hrs: < 10
  Viable bacteria after 48 hrs: < 10
  Viable bacteria after 7 days: < 10
Pseudomonas aeruginosa [1]; Table 4, 125 ppm
  Viable bacteria after 24 hrs: < 10
  Viable bacteria after 48 hrs: < 10
  Viable bacteria after 7 days: < 10
Pseudomonas aeruginosa [1]; Table 4, 500 ppm
  Viable bacteria after 24 hrs: < 10
  Viable bacteria after 48 hrs: < 10
  Viable bacteria after 7 days: < 10

## Cc1csc(=S)n1[O-].Cc1csc(=S)n1[O-].[O]=[V+2] [Example 12]
Pseudomonas aeruginosa [1]; Table 3, 125 ppm
  Viable bacteria after 24 hr: 1.5 E4
  Viable bacteria after 48 hr: > 3.0 E4
  Viable bacteria after 7 days: 8.3 E5
Pseudomonas aeruginosa [1]; Table 3, 500 ppm
  Viable bacteria after 24 hr: 1.3 E3
  Viable bacteria after 48 hr: < 10
  Viable bacteria after 7 days: < 10
